Test results as given in ChEMBL document CHEMBL1201862, “PubChem BioAssay data set” (2004).
The source made the active and inactive calls.

How the values were obtained:
Ion channel NompC = Ion channel NompC (Danio rerio, UniProt Q7T1G6); assay: Fluorescence counterscreen assay for TRPML3 agonists: dose response cell-based high-throughput screening assay to identify agonists of the transient receptor potential channel N1 (TRPN1). [Related pubchem assays: 1526, 1424, 1448 ]; type: functional
Mucolipin-3 = target: T1, Mucolipin-3 (Homo sapiens, UniProt Q8TDD5); assay: Dose response cell-based high-throughput screening assay for agonists of the transient receptor potential channel ML3 (TRPML3). [Related pubchem assays: 1526, 1424, 1448 ]; type: functional
T1 sequence (Q8TDD5 whole entry): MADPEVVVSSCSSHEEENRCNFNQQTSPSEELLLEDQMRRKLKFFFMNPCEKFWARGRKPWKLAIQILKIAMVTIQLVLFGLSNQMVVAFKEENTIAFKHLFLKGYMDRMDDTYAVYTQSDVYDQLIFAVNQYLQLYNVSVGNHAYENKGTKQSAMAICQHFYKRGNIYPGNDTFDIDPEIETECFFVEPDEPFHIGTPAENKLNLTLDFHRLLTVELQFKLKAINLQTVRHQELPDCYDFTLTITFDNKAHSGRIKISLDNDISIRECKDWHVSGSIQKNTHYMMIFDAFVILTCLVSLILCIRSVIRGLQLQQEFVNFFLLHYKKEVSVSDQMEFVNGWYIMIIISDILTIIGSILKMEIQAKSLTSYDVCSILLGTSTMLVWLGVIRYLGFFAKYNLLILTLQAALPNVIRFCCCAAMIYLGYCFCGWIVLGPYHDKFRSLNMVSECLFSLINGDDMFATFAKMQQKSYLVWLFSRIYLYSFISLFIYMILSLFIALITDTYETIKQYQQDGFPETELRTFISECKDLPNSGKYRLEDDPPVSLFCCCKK

[1] = target: Mothers against decapentaplegic homolog 3 (Homo sapiens, UniProt P84022); assay: SMAD3 transcription factor inhibitors, dose response (AID 715); type: functional
[2] = target: T2, Neuropeptide Y receptor type 1 (Homo sapiens, UniProt P25929); assay: NPY-Y1 receptor antagonist potency, dose response, cell-based (AID 1277); type: functional
T2 sequence (P25929 whole entry): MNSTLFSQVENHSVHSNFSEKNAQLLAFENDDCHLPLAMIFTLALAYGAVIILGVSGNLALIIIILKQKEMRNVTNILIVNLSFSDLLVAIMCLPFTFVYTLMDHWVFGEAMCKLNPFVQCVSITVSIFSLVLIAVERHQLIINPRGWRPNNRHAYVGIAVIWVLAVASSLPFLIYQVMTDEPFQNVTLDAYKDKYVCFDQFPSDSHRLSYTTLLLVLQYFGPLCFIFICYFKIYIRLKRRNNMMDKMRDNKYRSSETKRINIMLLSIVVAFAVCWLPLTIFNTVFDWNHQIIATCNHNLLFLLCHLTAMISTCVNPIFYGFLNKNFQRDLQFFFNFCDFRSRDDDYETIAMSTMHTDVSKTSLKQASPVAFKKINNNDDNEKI

[3] = target: T3, Neuropeptide Y receptor type 2 (Homo sapiens, UniProt P49146); assay: NPY-Y2 antagonist potency, selectivity check, dose response, counter-screen for NPY-Y1 antagonist project, cell-based (AID 1278); type: functional
T3 sequence (P49146 whole entry): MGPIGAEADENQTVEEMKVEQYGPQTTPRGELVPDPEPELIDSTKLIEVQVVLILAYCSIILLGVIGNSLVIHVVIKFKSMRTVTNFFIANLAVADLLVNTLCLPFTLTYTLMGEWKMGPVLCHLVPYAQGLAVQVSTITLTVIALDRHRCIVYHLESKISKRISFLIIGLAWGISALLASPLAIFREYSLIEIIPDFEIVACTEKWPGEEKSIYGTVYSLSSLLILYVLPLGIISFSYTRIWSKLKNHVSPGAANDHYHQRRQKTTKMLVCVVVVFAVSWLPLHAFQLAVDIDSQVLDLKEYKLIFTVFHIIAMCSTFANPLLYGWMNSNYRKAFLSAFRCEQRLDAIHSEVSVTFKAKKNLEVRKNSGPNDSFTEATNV

[4] = HEp-2 cell cytotoxicity, dose response, cytotoxicity control for RSV inhibitor project, HTS (AID 2410); type: functional; conditions: human respiratory syncytial virus
[5] = target: Sphingosine 1-phosphate receptor 2 (Homo sapiens, UniProt O95136); assay: Dose Response Cell Based Assay for Agonists of the S1P2 Receptor of Purchased Analogues. [Related pubchem assays: 729, 843, 854, 736 ]; type: functional
Bcl-2-related protein A1 [6] = target: T4, Bcl-2-related protein A1 (Mus musculus, UniProt Q07440); assay: Bfl-1 inhibitors blocking BH3 peptide binding, confirmation, biochemical, TR-FRET, mouse Bfl-1 (AID 621);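 further: TR-FRET binding of GST-Bfl-1 to FITC-labelled Bid peptide via terbium antibody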
T4 sequence (Q07440 whole entry): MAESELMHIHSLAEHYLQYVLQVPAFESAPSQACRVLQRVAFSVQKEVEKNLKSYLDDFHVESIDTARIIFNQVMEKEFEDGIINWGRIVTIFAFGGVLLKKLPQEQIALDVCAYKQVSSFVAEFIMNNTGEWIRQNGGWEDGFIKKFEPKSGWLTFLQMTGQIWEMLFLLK

[7] = target: Glyceraldehyde-3-phosphate dehydrogenase (Homo sapiens, UniProt P04406)
Bcl-2-related protein A1 [8] = target: T4, Bcl-2-related protein A1; assay: Bfl-1 binding inhibitors, SAR follow-up, biochemical, fluorescence polarization (AID 1070)

Chain of Glyceraldehyde-3-phosphate dehydrogenase (P04406 whole entry): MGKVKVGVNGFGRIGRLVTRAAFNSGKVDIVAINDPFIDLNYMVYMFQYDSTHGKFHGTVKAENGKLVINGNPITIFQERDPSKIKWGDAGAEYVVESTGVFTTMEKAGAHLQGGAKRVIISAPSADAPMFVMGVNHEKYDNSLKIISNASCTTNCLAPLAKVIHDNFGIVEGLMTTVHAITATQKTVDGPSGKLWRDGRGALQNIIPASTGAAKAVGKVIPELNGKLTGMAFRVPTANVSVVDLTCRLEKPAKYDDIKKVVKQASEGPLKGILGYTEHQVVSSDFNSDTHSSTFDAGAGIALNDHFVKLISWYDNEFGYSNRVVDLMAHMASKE
Chain of Mothers against decapentaplegic homolog 3 (P84022 whole entry): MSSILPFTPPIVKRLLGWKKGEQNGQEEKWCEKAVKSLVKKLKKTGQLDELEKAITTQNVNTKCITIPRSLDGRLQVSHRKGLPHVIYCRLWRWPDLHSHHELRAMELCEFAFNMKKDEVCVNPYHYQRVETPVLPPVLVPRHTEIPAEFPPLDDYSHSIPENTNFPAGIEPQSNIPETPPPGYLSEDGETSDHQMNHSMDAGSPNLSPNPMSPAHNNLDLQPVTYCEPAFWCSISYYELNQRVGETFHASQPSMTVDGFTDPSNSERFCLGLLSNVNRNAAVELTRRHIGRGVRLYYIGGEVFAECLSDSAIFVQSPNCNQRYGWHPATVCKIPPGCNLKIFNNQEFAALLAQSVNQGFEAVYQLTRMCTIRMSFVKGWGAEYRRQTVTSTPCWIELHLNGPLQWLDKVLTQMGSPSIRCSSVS
Chain of Sphingosine 1-phosphate receptor 2 (O95136 whole entry): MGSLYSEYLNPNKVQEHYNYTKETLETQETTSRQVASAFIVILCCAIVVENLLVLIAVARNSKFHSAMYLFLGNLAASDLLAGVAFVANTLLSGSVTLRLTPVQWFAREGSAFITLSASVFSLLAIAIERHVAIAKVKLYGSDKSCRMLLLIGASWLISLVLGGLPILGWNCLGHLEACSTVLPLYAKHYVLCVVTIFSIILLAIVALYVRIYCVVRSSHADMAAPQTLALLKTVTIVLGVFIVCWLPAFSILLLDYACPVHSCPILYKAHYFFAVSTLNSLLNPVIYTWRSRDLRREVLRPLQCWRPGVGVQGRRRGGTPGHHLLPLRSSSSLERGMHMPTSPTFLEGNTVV
Chain of Ion channel NompC (Q7T1G6 whole entry): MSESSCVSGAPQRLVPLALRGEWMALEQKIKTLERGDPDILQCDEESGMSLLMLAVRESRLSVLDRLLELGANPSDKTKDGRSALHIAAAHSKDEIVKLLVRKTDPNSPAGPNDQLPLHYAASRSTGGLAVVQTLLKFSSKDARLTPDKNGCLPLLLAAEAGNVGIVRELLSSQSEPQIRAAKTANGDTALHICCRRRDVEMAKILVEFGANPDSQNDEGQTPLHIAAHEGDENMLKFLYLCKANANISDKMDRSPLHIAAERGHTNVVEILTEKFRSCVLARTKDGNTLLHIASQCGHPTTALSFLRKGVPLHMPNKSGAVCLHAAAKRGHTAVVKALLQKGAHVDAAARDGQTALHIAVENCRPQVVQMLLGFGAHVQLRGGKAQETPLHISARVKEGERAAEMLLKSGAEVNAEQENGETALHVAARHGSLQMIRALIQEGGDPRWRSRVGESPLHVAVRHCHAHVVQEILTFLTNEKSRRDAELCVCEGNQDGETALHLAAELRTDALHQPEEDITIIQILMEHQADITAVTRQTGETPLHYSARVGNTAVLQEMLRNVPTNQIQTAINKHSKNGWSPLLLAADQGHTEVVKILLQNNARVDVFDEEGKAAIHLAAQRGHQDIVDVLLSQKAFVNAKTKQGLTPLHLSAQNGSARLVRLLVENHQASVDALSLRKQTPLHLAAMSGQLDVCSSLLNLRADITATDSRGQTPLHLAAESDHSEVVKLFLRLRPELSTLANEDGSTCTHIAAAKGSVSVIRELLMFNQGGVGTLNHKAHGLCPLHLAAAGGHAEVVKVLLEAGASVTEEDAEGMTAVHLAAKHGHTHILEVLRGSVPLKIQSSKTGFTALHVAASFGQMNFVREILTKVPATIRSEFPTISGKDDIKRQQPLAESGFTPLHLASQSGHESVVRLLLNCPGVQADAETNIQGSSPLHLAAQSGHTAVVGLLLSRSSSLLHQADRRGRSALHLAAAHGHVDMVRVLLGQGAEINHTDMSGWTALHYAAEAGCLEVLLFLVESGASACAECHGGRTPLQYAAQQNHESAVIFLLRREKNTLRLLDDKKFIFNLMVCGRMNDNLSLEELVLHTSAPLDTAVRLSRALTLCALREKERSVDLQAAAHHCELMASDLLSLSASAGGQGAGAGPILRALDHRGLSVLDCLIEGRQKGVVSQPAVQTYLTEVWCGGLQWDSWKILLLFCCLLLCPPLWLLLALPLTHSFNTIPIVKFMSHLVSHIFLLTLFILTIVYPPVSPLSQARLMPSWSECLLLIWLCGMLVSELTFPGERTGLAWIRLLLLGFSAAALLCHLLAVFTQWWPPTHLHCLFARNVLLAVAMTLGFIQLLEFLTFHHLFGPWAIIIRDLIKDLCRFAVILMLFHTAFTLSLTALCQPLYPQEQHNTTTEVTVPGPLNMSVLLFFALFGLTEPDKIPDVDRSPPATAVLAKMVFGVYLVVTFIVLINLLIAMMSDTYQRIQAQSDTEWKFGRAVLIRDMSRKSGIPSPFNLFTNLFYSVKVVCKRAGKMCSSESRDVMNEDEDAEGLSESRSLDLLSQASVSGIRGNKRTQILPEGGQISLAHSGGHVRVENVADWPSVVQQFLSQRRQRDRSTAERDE

## CC(c1ccccc1)C1CC(=O)N(C2CCCCC2)C1=O (stereo unspecified)
Ion channel NompC
  EC50: > 29.9 µM (not active)
Mucolipin-3
  EC50: 4.1 µM (active)
[1]
  IC50: 125 µM (inconclusive)

## CCCCNC(=O)c1onc(CSc2ccc(Cl)cc2)c1C(=O)O
[2]
  IC50: 16.8 µM (not active)
[3]
  IC50: 9.93 µM (active)

## Cc1cccc2nc(-c3cccc(NC(=O)Cc4ccccc4)c3)cn12
[4]
  CC50: 42.8 µM (active)
cells
  IC50: 29.7 µM (active)

## Cc1cc(C(=O)CSc2nc[nH]n2)c(C)n1Cc1ccccc1
[5]
  EC50: > 30 µM (not active)

## O=C1C(Cl)=C(N2CCN(C(c3ccccc3)c3ccc(Cl)cc3)CC2)C(=O)N1c1ccc(Cl)c(Cl)c1 (stereo unspecified)
Bcl-2-related protein A1 [6]
  IC50: > 100 µM (not active)
[7]
  IC50: > 100 µM (not active)
Bcl-2-related protein A1 [8]
  IC50: > 100 µM (not active)
